In paper PMC8456958, “Selective Bacterial Targeting and Infection‐Triggered Release of Antibiotic Colistin Conjugates” (Angewandte Chemie (International Ed. in English), 2021):
Positions of bridges follow the written chain, without caps; N, C: chain ends. Non-standard residues stand in square brackets, D forms with d. Residues, ends and D or L forms follow the SMILES beside them. *: point of attachment. Heptanoyl(6-Me) = CC(C)CCCCC(=O)*; Dab = NCC[C@H](N)C(=O)O

Biological target: T1, neutrophil elastase (NE) (Homo sapiens, UniProt P08246)
T1 construct: Activity of NE after co‐cultivation of PMN with E. coli K12 in presence of 1 or 6; endogenous in cells; host or cells: primary human PMN isolated from fresh venous whole blood of healthy volunteers, co-cultivated with E. coli K12
T1 sequence (P08246 30-267): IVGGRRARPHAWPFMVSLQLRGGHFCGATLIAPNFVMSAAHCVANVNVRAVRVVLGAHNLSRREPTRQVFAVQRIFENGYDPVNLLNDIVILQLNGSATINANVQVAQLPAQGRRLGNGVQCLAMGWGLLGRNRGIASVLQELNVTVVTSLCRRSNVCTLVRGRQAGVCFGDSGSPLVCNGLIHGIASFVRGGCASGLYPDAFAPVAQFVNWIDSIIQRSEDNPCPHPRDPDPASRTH
Assay: Activity of NE in co-cultivation of PMN with E. coli K12 (MeOSuc-AAPV-pNA cleavage)
Assay type: cell-based
Details: 10 μM; PMN co-cultivated with E. coli K12, 1 h, 37 °C, RPMI 1640/HEPES-NaCl 1:1; mean of two experiments
Procedure: Figure 5 Cellular proof of concept for triggered antibiotic release from 6. a) Release of neutrophil elastase (NE) from neutrophil granulocytes. PMN were isolated and suspended in RPMI 1640. For activation, 0.1 μM fMLP was added. The samples were incubated for 1 h at 37 °C, centrifuged to remove cells, and the NE concentration was determined in the supernatant by ELISA. Values normalized to 1×10^6 cells mL^−1. Data are presented as the mean of 4 separate experiments. *p<0.03 compared to unactivated. b) Activity of NE after co‐cultivation of PMN with E. coli K12 in presence of 1 or 6. […] After 1 h colistin concentrations were determined by HPLC–MS. […]
Calculation of results: All samples and standards were measured in duplicate. The standard curve was constructed by plotting the mean absorbance for each standard on the y-axis against the concentration on the x-axis. A linear regression analysis was performed and the results for the samples were calculated. […]
on. […] The plate was incubated in a microplate reader for 60 min at 37 °C with shaking for 5 sec at 50 rpm once per minute.
Every minute readings were taken at 410 nm. For the calculation of the cleavage velocity, the difference in absorbance after an initialization phase at 15 min and a further incubation time of 30 min was used and related to total cleavage of the substrate. The blank was subtracted from the readings. […]

CC(C)CCCCC(=O)N[C@@H](CCN)C(=O)N[C@H](C(=O)N[C@@H](CCN)C(=O)N[C@H]1CCNC(=O)[C@H]([C@@H](C)O)NC(=O)[C@H](CCN)NC(=O)[C@H](CCN)NC(=O)[C@H](CC(C)C)NC(=O)[C@@H](CC(C)C)NC(=O)[C@H](CCN)NC1=O)[C@@H](C)O [Compound 1, colistin B, reference compound] ({Heptanoyl(6-Me)}-[Dab]T[Dab][Dab][Dab][dL]L[Dab][Dab]T; lactam 4-C)
enhancing effect on the activity of NE: 2.3–2.5 fold
